Results reported in paper PMC5996997 (Journal of medicinal chemistry, 2017).
Entries after “also recorded” stand apart in the source; their conditions may differ.

Assays:
PDK2 [1] = molecular target: T1, PDK2 (Homo sapiens, UniProt Q15119); assay: Isothermal titration calorimetry; conditions: ITC, binding to PDK2
PDK2 [2] = molecular target: T1, PDK2
[3] = 17 at 30 mg/kg vs 2 at 70 mg/kg IP
[4] = tested on: phosphorylated E1α subunit (pE1); assay: Western blot of phosphorylated E1α in liver homogenates of treated DIO mice; assay type: in vivo, C57BL/6J male mice (DIO); conditions: 40–45 mg/kg/day by osmotic mini-pumps, two weeks
[5] = tested on: diet-induced obese (DIO) mice; assay: Oil Red O stain of liver slices; assay type: in vivo, C57BL/6J male mice (DIO); conditions: 40–45 mg/kg/day by mini pumps, two weeks
[6] = tested on: diet-induced obese (DIO) mice; assay: Glucose tolerance test in DIO mice; assay type: in vivo, C57BL/6J male mice (DIO); conditions: 40–45 mg/kg/day, two weeks, p <0.05 at 20, 30, 60 and 120 min
PDC activity = PDC activity in tissues of treated diet-induced obese mice; assay type: in vivo, C57BL/6J male mice (DIO); conditions: DIO mice, 40–45 mg/kg/day by osmotic mini-pumps, two weeks

For O=S(=O)(c1ccc(O)cc1O)N1Cc2ccc(O)cc2C1 [Compound 1, 4-((5-hydroxyisoindolin-2-yl)sulfonyl)benzene-1,3-diol], the “–TΔS” value (PDK2 [1]) was 5.54 kcal/mol.

With O=S(=O)(c1ccc(O)cc1O)N1Cc2cc(O)cc(O)c2C1 [Compound 2, 2-((2,4-dihydroxyphenyl)sulfonyl)isoindoline-4,6-diol] the “–TΔS” value (PDK2 [1]) was 6.57 kcal/mol.

In the case of Nc1ccc2c(c1)CN(S(=O)(=O)c1ccc(O)cc1O)C2 [Compound 3], the “fold higher IC50 than 1” value (PDK2 [2]; PDK2, relative to 1) is reported as 2 fold.

With O=S(=O)(c1ccc(O)cc1O)N1Cc2ccc(NC3CCNCC3)cc2C1 [Compound 5, 4-((5-(piperidin-4-ylamino)isoindolin-2-yl)sulfonyl)benzene-1,3-diol] the “–TΔS” value (PDK2 [1]) was 4.64 kcal/mol.

For NC(=O)C[C@H](N)C(=O)N1CCC(Nc2ccc3c(c2)CN(S(=O)(=O)c2ccc(O)cc2O)C3)CC1 [Compound 17, (S)-3-amino-4-(4-((2-((2,4-dihydroxyphenyl)sulfonyl)isoindolin-5-yl)amino)piperidin-1-yl)-4-oxobutanamide], the “fold higher AUClast in liver than 2” value [3] was over 10 fold, the “fold lower AUClast in muscle than 2” value [3] was over 10 fold and the “fold slower unit-time clearance (CL/F) in liver than 2” value [3] was over 30 fold. For the same compound, the “phosphorylation of the E1α subunit (pE1) in the liver homogenate” value [4] was “decreased phosphorylation”, the “hepatic fat / steatosis (Oil Red O)” value [5] was “drastically reduced hepatic steatosis; also recorded: microvesicular” and the “fold lower IC50 than 2” value (PDK2 [2]; PDK2, relative to 2) was ~ 8 fold. For the same compound, the “fold better IC50 than 5” value (PDK2 [2]; PDK2, relative to 5) was 3.4 fold, the “gain in enthalpy change (ΔH) compared to 5” value (PDK2 [1]) was 3.4 kcal/mol and the “loss in entropy compared to 5” value (PDK2 [1]) was 2.7 kcal/mol. The “glucose tolerance over vehicle-treated mice” value [6] was “increases glucose tolerance”, the “PDC activation in heart and muscle” value (PDC activity) was “no PDC activation” and the “increase of PDC activity in liver compared to the vehicle control” value (PDC activity) was “about 6 fold”.
